Like-named read-outs stand apart in the source and are kept apart here.
Key:
P-4E-BP1 (T37/46) = experiment: Cell based AlphaLISA assay, inhibition of P-4E-BP1 (T37/46) (mTORC1 substrate phosphorylation) in MDA-MB-468 cells; settings: Homo sapiens, AlphaLISA, two to four hours at 37° C., read-out: pIC50 for Inhibition of mTORC1 and mTORC2 Substrate Phosphorylation, P-4E-BP1-(T37/46) (converted)
Method: (§1) Cell Based AlphaLISA Assays for Determining IC50 for Inhibition of P-Akt (S473), P-4E-BP1 (T37/46), and P-P70S6K (T389) in MDA-MB-468 Cells
(§2) mTOR Kinase Cellular Assay
(§3) To measure functional activity of mTORC1 and mTORC2 in cells the phosphorylation of 4EBP1 (Thr37/46) and P70S6K (Thr389), and AKT1/2/3 (Ser473) was monitored using AlphaLisa SureFire Ultra Kits (Perkin Elmer). […] Incubations were terminated by removal of the assay buffer and addition of lysis buffer provided with the assay kit. Samples were processed according to the manufacturer's instructions. The Alpha signal from the respective phosphoproteins was measured in duplicate using a microplate reader (Envision, Perkin-Elmer or Spectramax M5, Molecular Devices). Inhibitor concentration response curves were analyzed using normalized IC50 regression curve fitting with control based normalization.

P-P70S6K (T389) = experiment: Cell based AlphaLISA assay, inhibition of P-P70S6K (T389) (mTORC1 substrate phosphorylation) in MDA-MB-468 cells; settings: Homo sapiens, 4 h, AlphaLISA, two to four hours at 37° C., read-out: pIC50 for Inhibition of mTORC1 and mTORC2 Substrate Phosphorylation, P-P70S6K-(T389) (converted)
Method: as §1, §2, §3

P-Akt (S473) = experiment: Cell based AlphaLISA assay, inhibition of P-Akt (S473) (mTORC2 substrate phosphorylation) in MDA-MB-468 cells; settings: Homo sapiens, AlphaLISA, two to four hours at 37° C., read-out: pIC50 for Inhibition of mTORC1 and mTORC2 Substrate Phosphorylation, p-AKT 1/2/3 -(S473) (converted)
Method: as §1, §2, §3

Structure (SMILES) | IC50 (P-4E-BP1 (T37/46); MDA-MB-468, 4 h) [nM] | IC50 (P-P70S6K (T389)) [nM] | IC50 (P-Akt (S473); MDA-MB-468, 4 h) [nM] | IC50 (P-4E-BP1 (T37/46); 4 h) [nM] | IC50 (P-Akt (S473); 4 h) [nM]
CO[C@H]1C[C@@H]2CC[C@@H](C)[C@@](O)(O2)C(=O)C(=O)N2CCCC[C@H]2C(=O)O[C@H]([C@H](C)C[C@@H]2CC[C@@H](O)[C@H](OC)C2)C[C@@H](OC)[C@H](C)/C=C(\C)[C@@H](O)[C@@H](OC)C(=NOCc2cn(CCOCCOCCOCCOCCC(=O)NCCCCn3nc(-c4ccc5oc(N)nc5c4)c4c(N)ncnc43)nn2)[C@H](C)C[C@H](C)/C=C/C=C/C=C/1C [Example 16] | > 1000 | > 1000 | > 1000 |  | 
CO[C@H]1C[C@@H]2CC[C@@H](C)[C@@](O)(O2)C(=O)C(=O)N2CCCC[C@H]2C(=O)O[C@H]([C@H](C)C[C@@H]2CC[C@H](n3cc(-c4cccc(C(=O)NCCOCCOCCOCCOCCC(=O)NCCOCCOCCOCCOCCC(=O)NCCCCn5nc(-c6ccc7oc(N)nc7c6)c6c(N)ncnc65)c4)nn3)[C@H](OC)C2)CC(=O)[C@H](C)/C=C(\C)[C@@H](O)[C@@H](OC)C(=O)[C@H](C)C[C@H](C)/C=C/C=C/C=C/1C [Example 141] | 3.16 to 31.6 | 1 to 10 | 3.16 to 31.6 |  | 
CO[C@H]1C[C@@H]2CC[C@@H](C)[C@@](O)(O2)C(=O)C(=O)N2CCCC[C@H]2C(=O)O[C@H]([C@H](C)C[C@@H]2CC[C@@H](OCc3cccc(-c4cnc(N5CCN(C(=O)CCc6cn(CCOCCOCCOCCC(=O)NCCCCn7nc(-c8ccc9oc(N)nc9c8)c8c(N)ncnc87)nn6)CC5)nc4)c3)[C@H](OC)C2)CC(=O)[C@H](C)/C=C(\C)[C@@H](O)[C@@H](OC)C(=O)[C@H](C)C[C@H](C)/C=C/C=C/C=C/1C [Example 46] | < 3.16 | < 1 | 3.16 to 31.6 |  | 
CO[C@H]1C[C@@H]2CC[C@@H](C)[C@@](O)(O2)C(=O)C(=O)N2CCCC[C@H]2C(=O)O[C@H]([C@H](C)C[C@@H]2CC[C@H](n3cc(-c4cccc(C(=O)NCCOCCOCCOCCC(=O)NCCOCCOCCOCCOCCC(=O)NCCCCn5nc(-c6cc7cc(O)ccc7[nH]6)c6c(N)ncnc65)c4)nn3)[C@H](OC)C2)CC(=O)[C@H](C)/C=C(\C)[C@@H](O)[C@@H](OC)C(=O)[C@H](C)C[C@H](C)/C=C/C=C/C=C/1C [Example 140] | 3.16 to 31.6 | 1 to 10 | 31.6 to 1000 |  | 
CO[C@H]1C[C@@H]2CC[C@@H](C)[C@@](O)(O2)C(=O)C(=O)N2CCCC[C@H]2C(=O)O[C@H]([C@H](C)C[C@@H]2CC[C@@H](OCCCCc3cn(CCOCCOCCOCCOCCOCCOCCOCCOCCC(=O)NCCCCn4nc(-c5cnc6[nH]ccc6c5)c5c(N)ncnc54)nn3)[C@H](OC)C2)CC(=O)[C@H](C)/C=C(\C)[C@@H](O)[C@@H](OC)C(=O)[C@H](C)C[C@H](C)/C=C/C=C/C=C/1C [Example 69] |  | < 1 |  | < 3.16 | 3.16 to 31.6
CO[C@H]1C[C@@H]2CC[C@@H](C)[C@@](O)(O2)C(=O)C(=O)N2CCCC[C@H]2C(=O)O[C@H]([C@H](C)C[C@@H]2CC[C@H](n3cc(COC(=O)NCCOCCOCCOCCC(=O)NCCOCCOCCC(=O)NCCCCn4nc(-c5ccc6oc(N)nc6c5)c5c(N)ncnc54)nn3)[C@H](OC)C2)CC(=O)[C@H](C)/C=C(\C)[C@@H](O)[C@@H](OC)C(=O)[C@H](C)C[C@H](C)/C=C/C=C/C=C/1C [Example 120] | 3.16 to 31.6 | 1 to 10 | 31.6 to 1000 |  | 
CCO[C@@H]1C[C@@H]([C@H](C)C[C@@H]2CC[C@H](n3cc(CCCC(=O)NCCOCCOCCOCCC(=O)NCCOCCOCCC(=O)NCCCCn4nc(-c5ccc6oc(N)nc6c5)c5c(N)ncnc54)nn3)[C@H](OC)C2)OC(=O)[C@@H]2CCCCN2C(=O)C(=O)[C@]2(O)O[C@@H](CC[C@H]2C)C[C@H](OC)/C(C)=C/C=C/C=C/[C@@H](C)C[C@@H](C)C(=O)[C@H](OC)[C@H](O)/C(C)=C/[C@H]1C [Example 165] | 31.6 to 1000 | 1 to 10 | > 1000 |  | 
COc1cccc2cc(-c3nc([C@H]4CC[C@H](C(=O)NCCOCCOCCOCCNC(=O)CCOCCOCCOCCOCCn5cc(CCCCO[C@@H]6CC[C@@H](C[C@@H](C)[C@@H]7C[C@@H](OC)[C@H](C)/C=C(\C)[C@@H](O)[C@@H](OC)C(=O)[C@H](C)C[C@H](C)/C=C/C=C/C=C(\C)[C@@H](OC)C[C@@H]8CC[C@@H](C)[C@@](O)(O8)C(=O)C(=O)N8CCCC[C@H]8C(=O)O7)C[C@H]6OC)nn5)CC4)n4ncnc(N)c34)[nH]c12 [Example 190] | 3.16 to 31.6 | < 1 | 31.6 to 1000 |  | 
CO[C@H]1C[C@@H]2CC[C@@H](C)[C@@](O)(O2)C(=O)C(=O)N2CCCC[C@H]2C(=O)O[C@H]([C@H](C)C[C@@H]2CC[C@H](n3nncc3-c3cccc(-c4cnc(N5CCN(C(=O)CCc6cn(CCOCCOCCC(=O)NCCCCn7nc(-c8ccc9oc(N)nc9c8)c8c(N)ncnc87)nn6)CC5)nc4)c3)[C@H](OC)C2)CC(=O)[C@H](C)/C=C(\C)[C@@H](O)[C@@H](OC)C(=O)[C@H](C)C[C@H](C)/C=C/C=C/C=C/1C [Example 49] | < 3.16 | < 1 | 31.6 to 1000 |  | 
CO[C@H]1C[C@@H]2CC[C@@H](C)[C@@](O)(O2)C(=O)C(=O)N2CCCC[C@H]2C(=O)O[C@H]([C@H](C)C[C@@H]2CC[C@@H](O)[C@H](OC)C2)C/C(=N/OCc2cn(CCOCCOCCOCCOCCOCCOCCOCCOCCC(=O)NCCCCn3nc(-c4ccc5oc(N)nc5c4)c4c(N)ncnc43)nn2)[C@H](C)/C=C(\C)[C@@H](O)[C@@H](OC)C(=O)[C@H](C)C[C@H](C)/C=C/C=C/C=C/1C [Example 63] | 31.6 to 1000 | 10 to 1000 | 31.6 to 1000 |  | 
CO[C@H]1C[C@@H]2CC[C@@H](C)[C@@](O)(O2)C(=O)C(=O)N2CCCC[C@H]2C(=O)O[C@H]([C@H](C)C[C@@H]2CC[C@H](n3nncc3-c3cccc(-c4cnc(N5CCN(Cc6cn(CCOCCOCCOCCC(=O)NCCCCn7nc(-c8ccc9oc(N)nc9c8)c8c(N)ncnc87)nn6)CC5)nc4)c3)[C@H](OC)C2)CC(=O)[C@H](C)/C=C(\C)[C@@H](O)[C@@H](OC)C(=O)[C@H](C)C[C@H](C)/C=C/C=C/C=C/1C [Example 31] | < 3.16 | < 1 | 3.16 to 31.6 |  | 
CO[C@H]1C[C@@H]2CC[C@@H](C)[C@@](O)(O2)C(=O)C(=O)N2CCCC[C@H]2C(=O)O[C@H]([C@H](C)C[C@@H]2CC[C@H](n3cc(CCCC(=O)NCCOCCOCCOCCOCCC(=O)NCCOCCOCCOCCOCCC(=O)NCCCCn4nc(-c5ccc6oc(N)nc6c5)c5c(N)ncnc54)nn3)[C@H](OC)C2)CC(=O)[C@H](C)/C=C(\C)[C@@H](O)[C@@H](OC)C(=O)[C@H](C)C[C@H](C)/C=C/C=C/C=C/1C [Example 134] | 3.16 to 31.6 | 1 to 10 | 3.16 to 31.6 |  | 
CO[C@H]1C[C@@H]2CC[C@@H](C)[C@@](O)(O2)C(=O)C(=O)N2CCCC[C@H]2C(=O)O[C@H]([C@H](C)C[C@@H]2CC[C@@H](OCCCCc3cn(CCOCCOCCOCCOCCOCCOCCC(=O)NCCCCn4nc(-c5cnc6[nH]ccc6c5)c5c(N)ncnc54)nn3)[C@H](OC)C2)CC(=O)[C@H](C)/C=C(\C)[C@@H](O)[C@@H](OC)C(=O)[C@H](C)C[C@H](C)/C=C/C=C/C=C/1C [Example 68] |  | < 1 |  | 3.16 to 31.6 | 31.6 to 1000

Source: patent US20230093861A1, “RAPAMYCIN ANALOGS AS MTOR INHIBITORS” (Revolution Medicines, Inc., priority 2017, published 2023)
